From a melting point compilation (Tetko et al.; mined from patent text by program, amines drawn as free bases though some values may be those of a salt)

Row | SMILES | melting point
1 | O=C(O)[C@@H]1CCCC[C@H]1C(=O)CS (relative stereo) | 112 to 117 °C
2 | Nc1ccc(-c2noc(-c3cnn4c(C(F)F)cc(-c5ccc(C(F)(F)F)c(F)c5)nc34)n2)cn1 | 242 °C
3 | Cc1ccc2c(c1)N(CC(=O)c1ccccc1C)C(=O)C(NC(=O)Nc1ccc(F)c(C(=O)O)c1)CN2C(=O)C(C)(C)C (stereo not given) | 225 to 228 °C
4 | O=[N+]([O-])c1cccc2c1sc1c(Nc3cccc(Br)c3)ncnc12 | 247 to 248 °C
5 | CN(c1cc(OC(F)(F)F)cc2cc(C3=NCC(CN4CCOCC4)S3)[nH]c12)S(=O)(=O)c1cccs1 (stereo not given) | 165 to 166 °C
6 | C[C@@H](S[C@H]1CO[C@H](c2ccc(C(=O)Nc3nc4ccccc4s3)cc2)OC1)[C@](O)(Cn1cncn1)c1ccc(F)cc1F | 107 °C
7 | CNc1nc2c(c(N3CCN(C=O)CC3)n1)SCCC2 | 149 to 151 °C
8 | CC(C)(C)[C@H](NC(=O)[C@@H](CC(=O)OCc1ccccc1)n1ccc(-c2ccc(-c3ccc(C#N)cc3)cc2)c1)C(=O)Nc1ccncc1 | 115 to 116 °C
9 | O=C1CNc2cc(Cl)ccc2N1 | 171 to 174 °C
10 | O=C(NC1CCc2ccccc21)c1ccc2cnccc2n1 (stereo not given) | 156 to 157 °C
11 | Cc1c(Cl)nc(Br)n1S(=O)(=O)c1cccnc1Cl | 144 to 146 °C
12 | COc1cc(C)c(S(=O)(=O)c2ccccc2)cc1OC | 162 to 163 °C
13 | CN(C[C@H](O)[C@@H](O)[C@H](O)[C@H](O)CO)C(=O)c1ccc2n1Cc1ccccc1N(C(=O)c1ccc(-c3cccc4ccccc34)nc1)C2 | 165 to 167 °C
14 | COc1nc(C)c(Nc2nc(Cl)cn([C@H](COC(=O)Nc3cccc(C#N)c3)C3CC3)c2=O)cc1C | 206 to 207 °C
15 | c1ccc2c(c1)cc(Cn1ccnc1)c1ccsc12 | 109 to 111 °C
16 | COC(=O)CN1CCN2C(Cc3cc(OC)c(OC)cc3C2c2ccccc2)C1 (stereo not given) | 110 to 113 °C
17 | CC(C)OP(=O)(Cc1c(C2CCCCC2)cc(O)cc1C1CCCCC1)OC(C)C | 143 °C
18 | Brc1cn2ccccc2n1 | 83 to 85 °C
19 | CN(C)CCc1ccc(N)cc1 | 40 °C
20 | CC(C)(C)c1ccc2c(c1)C(C(=O)Nc1c(Cl)cccc1Cl)c1ccccc1CO2 (stereo not given) | 115 to 117 °C
21 | CCOC(=O)C1=C(C)NC(c2ncsc2Cl)=NC1c1ccc(F)cc1Cl (stereo not given) | 149 to 152 °C
22 | Cn1c(=O)c2cn(S(=O)(=O)CCCCl)nc2n(C)c1=O | 160 to 162 °C
23 | CC(=O)OC1CCN(Cc2nc(-c3cc(C(C)(C)C)c(O)c(C(C)(C)C)c3)cs2)CC1 | 160 to 161 °C
24 | CN1C(=O)CN(c2cccc(I)c2)NC1=O | 180 °C
25 | Cc1nsc(N(C)C(=O)C2CCCCC2)n1 | 96 °C
26 | CC(=O)Nc1cccc(NC(=O)Cc2ccc(-n3c(-c4cccnc4N)nc4ccc(C)nc43)cc2)c1 | 207 to 209 °C
27 | COc1cc2c(c(OC)c1OC)C[C@@H](N1CCN(C(=O)C=Cc3ccccc3)CC1)[C@@H]2O (relative stereo) | 162 to 163 °C
28 | C=C1C(O)C(COC(=O)CCCCCCCCCCCCCCCCC)OC1n1ccc(NC(=O)CCCCCCCCCCCCCCCCC)nc1=O (stereo not given) | 135 to 139 °C
29 | N#CN1CCN(c2nn(-c3ccccc3)c3ccccc23)CC1 | 118 to 120 °C
30 | Cc1oc(C(C)C)cc1C(=O)O | 88.5 °C

Now from value to compound:

Row | melting point | SMILES
31 | 191 °C | O=C(O)CCC(O)c1ccc(CCNS(=O)(=O)c2ccc(Cl)cc2)cc1 (stereo not given)
32 | 96 °C | CCCCCc1ccc(-c2ccc(-c3cc(F)c(C(F)(F)Oc4cc(F)c(C(F)(F)F)c(F)c4)c(F)c3)c(F)c2)cc1
33 | 156 to 158 °C | CC(Oc1ccc(Oc2cnc3cc(Cl)ccc3n2)cc1)C(=O)Nc1ccc(OC(F)(F)F)cc1 (stereo not given)
34 | 77 °C | CCONCCCC=C1C(=O)CC(c2ccc(Cl)cc2)CC1=O (stereo not given)
35 | 83 to 84 °C | Oc1ccc(Nn2cccc2)c2ccccc12
36 | 150 to 151 °C | C=CCNc1nc(NC(C)C)nc2ccc([N+](=O)[O-])cc12
37 | 134 to 136 °C | CCOCCn1c(N2CCN(CC)CC2)nc2ccccc21
38 | 96 to 98 °C | CCCN1c2ccccc2N(C)C(=O)c2cccnc21
39 | 147 to 148 °C | O=[N+]([O-])c1ccc(SCCc2c[nH]cn2)nc1
40 | 150 to 152 °C | CCC(CN1C(=O)c2ccccc2C1=O)n1cnc(-c2cccnc2)c1 (stereo not given)
41 | 84 to 86 °C | CCCc1c(OCCCC#CC(=O)NCCCCc2cccnc2)ccc(C(C)=O)c1O
42 | 122 to 123 °C | CN(C)CCNNc1ccc(CO)c2oc3ccc(O)cc3c(=O)c12
43 | 196 to 198 °C | CCC(C)(C)Nc1c(NCc2cccc(C)c2C)c(=O)c1=O
44 | 362 to 364 °C | O=C(O)c1ccc2c(c1)Sc1ccccc1NC2=O
45 | > 300 °C | CCCNS(=O)(=O)c1cc2cc(P(=O)(OCC)OCC)c(=O)[nH]c2cc1Cl
46 | 130 to 135 °C | CNC(=O)NCCn1c(-c2ccc(CN3CCOCC3)cc2C)csc1=Nc1ccc(F)c(C)c1
47 | 157 to 158 °C | CC(=O)OCC(=O)Nc1cccc([N+](=O)[O-])c1C#N
48 | 165 to 167 °C | OCCNc1nc(Cl)nc2cccc(Br)c12
49 | 148 to 149 °C | CC(=CCc1c(O)c(C)c2c(c1OS(=O)(=O)c1ccc(C)cc1)C(=O)OC2)CCC(=O)O
50 | 100 to 110 °C | O=C(N[C@@H](CCCCNSc1ncccc1[N+](=O)[O-])C(=O)N[C@H](CCC(=O)N1c2ccccc2C[C@H]1C(=O)O)C(=O)O)OCc1ccc2c(c1)OCO2

Row | melting point | SMILES
51 | 198 to 199 °C | CC(=O)OCCn1cc(C2=C(c3cn(C)c4ccccc34)C(=O)OC2=O)c2ccccc21
52 | 206 to 207 °C | CCCCC(=O)Nc1ccc(C(=O)Nc2ccc3cc(CN4CCCC4)cnc3c2C)cc1
53 | 76 to 78 °C | CCOC(=O)C=C(C)c1ccc(-c2ccccc2)cc1
54 | 126 to 127 °C | BrCc1ccc2nc(-c3ccccc3)ccc2c1
55 | 266 to 270 °C | O[C@H]1CC[C@H](Nc2nccc(-c3n[nH]c4c(C(F)(F)F)cccc34)n2)CC1
56 | 85 to 86 °C | CCOC(=O)c1ccc(CCCCN2C(=O)c3ccccc3C2=O)cc1
57 | 133 °C | CCOC(=O)N1CCC(NC(=S)Nc2cccnc2NCc2ccco2)CC1
58 | 192 to 193 °C | CCOC(=O)c1ccc(O)c(C#N)c1
59 | 85 to 86 °C | COc1ccccc1CN1CCc2cc(OCc3ccccc3)c(OC)cc2C1
60 | 207 to 209 °C | O=[N+]([O-])c1ccc(Sc2ncc[nH]2)cc1
61 | 132 to 134 °C | CCN1CCN=C1c1ccccc1C(=O)c1ccc(Cl)cc1
62 | 59 to 60 °C | CCc1cccc2c(C(=O)OC)cnnc12
63 | 84 to 85 °C | Cc1ncoc1C(C)(O)c1cccs1 (stereo not given)
64 | 174 °C | CN(C)CCOc1ccc(CNC(=O)c2ccc(S(N)(=O)=O)cc2)cc1
65 | 95 to 99 °C | CC(C)NCCCCCOc1ccc(O)cc1
66 | 123 °C | COC(CNC(=O)CCN1C(=O)NC(C)(C)C1=O)OC
67 | 92 to 94 °C | COc1ccc(-c2nc(Cl)sc2-c2ccc(OC)cc2)cc1
68 | 62.5 to 64.1 °C | CCCCCCn1c2ccccc2c2ccccc21
69 | 83 to 84 °C | COCCNC(=O)c1cccc(-c2cccc3oc(Cc4ccc(F)c(F)c4)cc23)c1
70 | 93 to 94 °C | CN(CCOc1ccc(CON=C(C(=O)O)c2ccccc2)cc1)c1ccccn1
